Experimental data: EP0378255B1, “2-Aminopyrimidinone derivatives” (JANSSEN PHARMACEUTICA N.V., priority 1989, dated 1990)
Like-named read-outs stand apart in the source and are kept apart here.

Legend:
Tryptamine = assay: Combined Apomorphine, Tryptamine and Norepinephrine (ATN) test in rats: tryptamine part; assay type: in vivo; details: Rattus norvegicus
Norepinephrine = assay: Combined Apomorphine, Tryptamine and Norepinephrine (ATN) test in rats: norepinephrine part; assay type: in vivo; details: Rattus norvegicus; read-out: Combined ATN test in rats ED₅₀ values (NOR)
Description: (§1) Int. Pharmacodyn. Ther., 227, 238-253, 1977. Further the activity of the subject compounds as serotonin antagonists is evidenced by the experimental data obtained in the "Gastric Lesions induced by compound 48/80 in rats" test, described in U.S.-4,335,127. […] All tests were carried out following the procedures described in the cited references and the experimental data are shown in Table 8.

compound 48/80 [1] = assay: Gastric Lesions induced by compound 48/80 in rats (serotonin antagonism); assay type: in vivo; details: Rattus norvegicus, read-out: Compound 48/80 tests ED₅₀ values Gastric lesions
Description: as §1

compound 48/80 [2] = assay: Protection of Rats from compound 48/80 induced lethality (antihistaminic activity); assay type: in vivo; details: Rattus norvegicus, read-out: Compound 48/80 tests ED₅₀ values Lethality
Description: as §1

Apomorphine = assay: Combined Apomorphine, Tryptamine and Norepinephrine (ATN) test in rats: apomorphine part; assay type: in vivo; details: Rattus norvegicus; read-out: Combined ATN test in rats ED₅₀ values (APO)
Wistar rats = details: separated group of 8 rats, cited from earlier work
[3] = convulsions, read-out: Combined ATN test in rats ED₅₀ values (TRY) convulsions
[4] = hyperaemia, read-out: Combined ATN test in rats ED₅₀ values (TRY) hyperaemia

| Structure (SMILES) | ED50 (Tryptamine; [3]) | ED50 (Tryptamine; [4]) | ED50 (Norepinephrine) | ED50 (compound 48/80 [1]) | ED50 (compound 48/80 [2]) | ED50 (Apomorphine) | effect on SWS2 (Wistar rats; 0.63 mg/kg, for 8 h, at the expense of W, SWS1 and PS) | effects on sleep-wakefulness patterns (Wistar rats; doses of 0.04 and 0.16 mg/kg) |
| --- | --- | --- | --- | --- | --- | --- | --- | --- |
| Cc1nc2n(C)ncn2c(=O)c1CCN1CCC(c2noc3cc(F)ccc23)CC1 [Compound 89] | 0.08 mg/kg | ≤ 0.0025 mg/kg | 0.31 mg/kg | 0.16 mg/kg | 0.02 mg/kg | 0.08 mg/kg |  |  |
| Cc1nc2n(C)c(C)cn2c(=O)c1CCN1CCN(c2noc3ccccc23)CC1 [Compound 111] | 0.31 mg/kg | 0.005 mg/kg | 0.31 mg/kg | 0.16 mg/kg |  | 0.08 mg/kg |  |  |
| CC1=NN(C)c2nc(C)c(CCN3CCN(c4noc5ccccc45)CC3)c(=O)n2C1 [Compound 112] | 0.31 mg/kg | 0.005 mg/kg | 0.63 mg/kg | 0.04 mg/kg | 0.16 mg/kg | 0.08 mg/kg |  |  |
| Cc1nc2n(C)nc(C)n2c(=O)c1CCN1CCN(c2noc3ccccc23)CC1 [Compound 113] | 0.31 mg/kg | 0.005 mg/kg | 1.25 mg/kg | 0.08 mg/kg |  | 0.08 mg/kg |  |  |
| Cc1nc2n(C)ncn2c(=O)c1CCN1CCN(c2noc3ccccc23)CC1 [Compound 114] | 0.31 mg/kg | ≤ 0.04 mg/kg | 1.25 mg/kg | 0.16 mg/kg |  | 0.08 mg/kg |  |  |
| Cc1nc2n(c(=O)c1CCN1CCN(c3noc4ccccc34)CC1)CCN2C [Compound 115] | 0.31 mg/kg | 0.005 mg/kg | 1.25 mg/kg | 0.02 mg/kg | 0.04 mg/kg | 0.08 mg/kg |  |  |
| Cc1nc2n(c(=O)c1CCN1CCN(c3noc4ccccc34)CC1)CCCN2C [Compound 120] | 0.08 mg/kg | 0.02 mg/kg | 1.25 mg/kg | 0.63 mg/kg | 0.01 mg/kg | 0.02 mg/kg |  |  |
| Cc1nc2n(C)ccn2c(=O)c1CCN1CCN(c2nsc3ccccc23)CC1 [Compound 124] | 0.02 mg/kg | 0.00125 mg/kg | 5 mg/kg | 0.04 mg/kg | 0.31 mg/kg | 0.08 mg/kg |  |  |
| Cc1nc2sccn2c(=O)c1CCN1CCC(=C(c2ccc(F)cc2)c2ccc(F)cc2)CC1 [ritanserin, 6-[2-[4-[bis(4-fluorophenyl)methylene]-1-piperidinyl]ethyl]-7-methyl-5H-thiazolo[3,2-a]pyrimidin-5-one] |  |  |  |  |  |  | significant increase of SWS2 | no major effects on sleep-wakefulness patterns |
